The source of these data is paper PMC5608352, “Formyl peptide derived lipopeptides disclose differences between the receptors in mouse and men and call the pepducin concept in question” (PLoS ONE, 2017).

“Also recorded” adds a separate entry of the source. Residues, ends and D or L forms follow the SMILES beside them. *: point of attachment. Palmitoyl = CCCCCCCCCCCCCCCC(=O)*

What all share (assay type): cell-based
In assay [1] the target is T1, mouse neutrophils (Mus musculus, UniProt O88536).
T1 sequence (O88536 1-351): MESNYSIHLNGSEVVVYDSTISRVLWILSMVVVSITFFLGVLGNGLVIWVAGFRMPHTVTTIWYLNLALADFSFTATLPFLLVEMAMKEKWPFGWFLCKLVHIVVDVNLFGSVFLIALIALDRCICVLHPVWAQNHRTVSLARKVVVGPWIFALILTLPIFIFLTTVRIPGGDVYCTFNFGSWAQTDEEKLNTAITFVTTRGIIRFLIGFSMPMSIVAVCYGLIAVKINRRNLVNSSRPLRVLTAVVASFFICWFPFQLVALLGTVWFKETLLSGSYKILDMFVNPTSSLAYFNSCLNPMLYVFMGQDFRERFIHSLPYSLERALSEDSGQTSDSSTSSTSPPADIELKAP
The assay can be described thus: Direct activation: superoxide release (isoluminol/HRP chemiluminescence), WT mouse bone marrow neutrophils. As to conditions: WT mouse (C57BL/6) bone marrow neutrophils, TNF-α primed, 5 x 10^4 cells, 37°C, isoluminol/HRP CL, peak activity; pepducin 1 μM in figures. The source says: (§1) Mice (8–12 weeks of age) were killed by cervical dislocation, the femurs and tibias were removed and freed of soft tissue attachments, and the extreme distal tip of each extremity was cut off. KRG without Ca^2+ and Mg^2+ (KRG-) was forced through the bone by using a 1-mL syringe with a 27-gauge needle. After dispersing cell clumps and removing the debris, the bone marrow granulocytes were isolated according to an earlier described procedure with some modifications. Briefly, a cell suspension in 2 mL of KRG- was laid on top of a three-layer Percoll gradient (1.095, 1.085, and 1.070 g/mL). The density of each Percoll solution was verified using density marker beads. After centrifugation at 500 × g for 30 min at 4°C in a swinging bucket rotor, the lowest band (1.085/1.095 g/mL interface) was collected as the neutrophil fraction. After washing with KRG-, remaining red blood cells were eliminated by hypotonic lysis. After a final wash with KRG-, the cells were resuspended in KRG. The cell number and population of bone marrow cells were determined by flow cytometry based on forward scatter (size) and side scatter (density) localization.
NADPH-oxidase activity was determined using an isoluminol and HRP-enhanced chemiluminescence (CL) system that allow for the determination of superoxide production. The CL activity was measured in a six-channel Biolumat LB 9505 apparatus (Berthold Co., Wildbad, Germany), using disposable 4-mL polypropylene tubes with 1 mL reaction mixture. The tubes contained 4 U HRP and 10 μg/mL isoluminol together with the cells that were equilibrated in the Biolumat for 5 min at 37°C, after which the stimulus solution (100 μL) was added. The light emission was recorded continuously over time and presented as superoxide production (in arbitrary light units, cpm x10^-6) as a function of time (min). The activity before stimulus addition was recorded as basal line and this activity was not changed in vehicle control samples. Since the FPR/Fpr-mediated superoxide production with respect to the onset and decline are very similar, the peak activities were used to compare the responses induced.
Naïve bone marrow cells produce very low levels of superoxide upon stimulation and to increase this production the cells were routinely primed for one hour at RT followed by TNF-α (10 ng/mL, final concentration) priming for a period of 20 min at 37°C [10]. The cells were then kept on ice until further analysis, as described above. The reason for choosing the chemiluminescence based NADPH-oxidase assay system was that very few cells are required, allowing us to monitor and quantify receptor-mediated events with the limited number of mouse bone marrow neutrophils available.
Data analysis was performed using Graph Pad Prism 7.0. The EC50/IC50 values were determined from experiments in which the activities were normalized to the response induced by maximal response or induced by agonist in the absence of inhibitor. The statistical analysis was performed on raw data using Student’s t-test when two groups were compared or one-way ANOVA with Dunnett’s multiple comparisons test in comparison to the control response when three groups were compared. * p ≤ 0.05 was considered significant.

Assay [2] has as its target T2, Fpr2 (Mus musculus, UniProt O88536).
T2 construct: WT mouse neutrophils (5 x 10^4 cells) were pre-incubated without (solid line) or with mF2Pal16; endogenous in cells; host or cells: bone marrow neutrophils of C57BL/6 wild-type mice, TNF-alpha primed
T2 sequence (O88536 1-351): T1 sequence (O88536 1-351)
Description: Inhibition of F2M2-induced superoxide release, WT mouse neutrophils. Particulars: mF2Pal16 500 nM; F2M2 150 nM; three independent experiments.
Text: as §1, with “After centrifugation at 500 × g for 30 min at 4°C in a swinging bucket rotor, the lowest band (1.085/1.095 g/mL interface) was collected as the neutrophil fraction. After washing with KRG-, remaining red blood cells were eliminated by hypotonic lysis. After a final wash with KRG-, the cells were resuspended in KRG.” left out
(§2) NADPH-oxidase activity was determined using an isoluminol and HRP-enhanced chemiluminescence (CL) system that allow for the determination of superoxide production. The CL activity was measured in a six-channel Biolumat LB 9505 apparatus (Berthold Co., Wildbad, Germany), using disposable 4-mL polypropylene tubes with 1 mL reaction mixture. […] The light emission was recorded continuously over time and presented as superoxide production (in arbitrary light units, cpm x10^-6) as a function of time (min). […]

Assay [3] deals with T2, Fpr2. Description: Inhibition of F2Pal16-induced superoxide release, WT mouse neutrophils. As to conditions: Boc2 2 μM or peptidomimetic inhibitor 1 μM (five experiments), or mF2Pal16 500 nM against F2Pal16 500 nM (three experiments); 5 min pre-incubation.
Text: as §1
as §2, with “(min). The activity before stimulus addition was recorded as basal line and this activity was not changed in vehicle control samples.” for “(min).”
Data analysis was performed using Graph Pad Prism 7.0. The EC50/IC50 values were determined from experiments in which the activities were normalized to the response induced by maximal response or induced by agonist in the absence of inhibitor. […]

Assay [4] deals with FPR2. The assay can be described thus: Inhibition of PSMα2-induced superoxide release, human neutrophils.
Text: (§3) Human peripheral blood neutrophils were isolated from buffy coats from healthy blood donors using dextran sedimentation and Ficoll-Paque gradient centrifugation as described. The remaining erythrocytes were disrupted by hypotonic lysis and the neutrophils were washed twice, suspended in KRG and, stored on melting ice until use. This isolation process permits cells to be purified with minimal granule mobilization. The buffy coats were obtained from the blood bank at Sahlgrenska University Hospital. Ethics approval was not needed since the buffy coats were provided anonymously and could not be traced back to a specific individual. This is in line with Swedish legislation section code 4§ 3p SFS 2003:460 (Lag om etikprövning av forskning som avser människor).
as §2, with “(min). The activity before stimulus addition was recorded as basal line and this activity was not changed in vehicle control samples.” for “(min).”

Assay [5] has as its system human neutrophils. The assay can be described thus: Direct activation: superoxide release (isoluminol/HRP chemiluminescence), human neutrophils. As to conditions: 10^5 cells, 37°C, isoluminol/HRP CL, pepducin 1 μM.
Text: as §3
as §2, with “(min). The activity before stimulus addition was recorded as basal line and this activity was not changed in vehicle control samples.” for “(min).”

Assay [6] concerns FPR2. The assay can be described thus: Receptor preference in human neutrophils (FPR2 versus FPR1). As to conditions: conclusion from superoxide release experiments.
Text: as §3
as §2, with “(min). The activity before stimulus addition was recorded as basal line and this activity was not changed in vehicle control samples.” for “(min).”

Assay [7] concerns the target T2, Fpr2. The assay can be described thus: Inhibition of PSMα2-induced superoxide release, WT mouse neutrophils. As to conditions: mF2Pal16 500 nM, 5 min pre-incubation; PSMα2 10 nM.
Text: as §1, with “After centrifugation at 500 × g for 30 min at 4°C in a swinging bucket rotor, the lowest band (1.085/1.095 g/mL interface) was collected as the neutrophil fraction. After washing with KRG-, remaining red blood cells were eliminated by hypotonic lysis. After a final wash with KRG-, the cells were resuspended in KRG.” left out
as §2

Turning to `CCCCCCCCCCCCCCCC(=O)N[C@@H](CCCCN)C(=O)N[C@H](C(=O)N[C@@H](CC(N)=O)C(=O)N[C@@H](CCCNC(=N)N)C(=O)N[C@@H](CCCNC(=N)N)C(=O)N[C@@H](CC(N)=O)C(=O)N[C@@H](CC(C)C)C(=O)N[C@H](C(=O)N[C@@H](CC(N)=O)C(=O)N[C@@H](CO)C(=O)N[C@@H](CO)C(=O)N[C@@H](CCCNC(=N)N)C(=O)N1CCC[C@H]1C(=O)N[C@@H](CC(C)C)C(=O)N[C@@H](CCCNC(=N)N)C(=O)N[C@H](C(=O)O)C(C)C)C(C)C)[C@@H](C)CC` [mF2Pal16] (Palmitoyl-KINRRNLVNSSRPLRV-OH; C-terminus assumed), the “superoxide release / activation of WT mouse neutrophils” value in assay [1] was “No activation of mouse neutrophils”. The “effect on F2M2 response, mouse neutrophils” value in assay [2] is listed as “inhibitory effect”. Also, the “effect of inhibitor on F2Pal16 response, WT mouse neutrophils” value in assay [3] was “inhibitory effect”. Also, in assay [4], the “effect on PSMα2 response, human neutrophils” value is reported as “largely inhibited”. In assay [5], the “superoxide release / activation of human neutrophils” value is given as “did not activate human neutrophils to produce superoxide”. Also, in assay [6], the “receptor preference / modulation of FPR2 (versus FPR1) in human neutrophils” value was “potent and selective inhibitor for Fpr2/FPR2; also recorded: inhibits the activity of FPR2 in human neutrophils”. For the same compound, the “inhibition of PSMα2 response, mouse neutrophils” value in assay [7] is given as “potently inhibited”.
